# Columns and labels:
# [1] = system: diabetic rats; settings: diabetic rats (Kihara 1991, Miyauchi 1996, Yagihashi 1992); cited from earlier work
# [2] = system: old rats; settings: aging rats (Li et al 1996); cited from earlier work
# [3] = system: diabetic rats; settings: cited from earlier work
# [4] = system: diabetic retinopathy in rat model; settings: rat model (Hammes 1991, 1994; Roufail 1998); cited from earlier work
# [5] = system: AGE derived protein cross links; settings: Vasan et al. Nature 1996; U.S. Pat. No. 5,853,703; cited from earlier work
# [6] = target: T1, AGE-BSA (Bos taurus, UniProt P02769); assay: In-vitro screening for AGE-breaking activity (AGE-BSA incubated with compound; ELISA / gel permeation chromatography); format: biochemical, bovine; settings: 10 mM compound, 37° C., 24 hours
# T1 construct: Bovine serum albumin (fraction V) (BSA); from tissue; host or cells: bovine serum (fraction V); own knowledge: fraction V is the albumin fraction of plasma/serum
# Procedure: Fluorescence was used as the criteria to monitor the increased AGE formation.
# 160 mg/ml of protein, bovine serum albumin, BSA and 1.6M glucose sugar were dissolved in phosphate buffered saline, PBS. Sodium azide was added at 0.02% concentration as a preservative. The solution was filtered asceptically through a […] filter and kept for aging at 37° C. for 16 weeks. After 16 weeks the solution was dialyzed against PBS, aliquoted and stored at −20° C.
# To determine the AGE breaking activity, 10 μg/ml of the 16 weeks AGE-BSA was incubated with different concentrations of the test compounds at 37° C. for 24 hours and AGE breaking activity of the test compounds by ELISA was determined.
# • 1. Different concentrations of 16 weeks AGE-BSA were coated on a microtiter plate as standard. Each concentration is coated in triplicates. • 2. The test samples were coated on microtiter plate at a concentration of 5 ng. to 20 ng per well in triplicates. • 3. The plate was incubated at 37° C. for one hour. • 4. After incubation the plate was washed with PBST (PBS with 0.05% Tween 20). • 5. Blocking with 5% skimmed milk in PBS at 37° C. for one hour was done. • 6. The plate was washed with PBST. • 7. Primary antibody against AGE-BSA was added and the plate is incubated at 37° C. for one hour. • 8. The plate was washed with PBST. • 9. Secondary antibody anti rabbit HRPO (Horse-Radish Per Oxidase) conjugate was added and the plate is incubated at 37° C. for one hour. • 10. The plate was washed with PBST. • 11. Colour development with OPD (orthophenylenediamine dihydrochloride) and hydrogen peroxide was done. • 12. OD (optical density) at (450 nm reading –620 nm reading) was measured after incubation at 37° C. for 15 minutes with Microplate ELISA Reader.
# The breaker activity of the compounds were determined by the following formula:
# [formula] OD450-620Control=Absorbance of 20 ng AGE-BSA after incubation at 37° C. for 24 hours without test compound. OD450-620Test=Absorbance of 20 ng AGE-BSA after incubation at 37° C. for 24 hours with required concentration of test compound.
# Gel Permeation Chromatography based method was used to determine AGE breaking activities of the compounds.
# Separation by Gel Permeation Chromatography (GPC) depends on differences in the size, more precisely the hydrodynamic volume, of the proteins in a sample. […] The pores of a column particle are differentially accessible to smaller particles, depending on their size. This volume of the column is called (V1). The total accessible volume (Vt) is the sum of the volume outside the particles (V0) and the volume accessible inside the particles (V1): Vt=V0+Vi Therefore, in a typical Gel Permeation Chromatography (GPC) run, high molecular weight molecules elute at a lower retention time whereas lower molecular weight molecules are retained for longer time. For the purpose of quantification, the area under the curve for the respective molecule is recorded. The same principle has been applied in the in vitro screening of the molecules of instant invention. Highly cross-linked Advanced Glycosylated Endproducts (AGE) were prepared in vitro by incubating Bovine Serum Albumin (BSA) with glucose for a period of 16 weeks. […] The reduction in the area of AGE-BSA incubated in the presence of AGE breaker as compared to that of control AGE BSA (incubated in absence of AGE breaker) gives an estimate of the AGE breaker activity of the drug. In order to check the non-specific activity of the molecule, a similar experiment was repeated with BSA as well. Methodology:
# A known concentration of 16-week AGE-BSA was incubated with and without a predetermined concentration of the drug at 37° C. for 24 hours in clean transparent glass test tubes. The solution without drug served as the control and the solution containing the drug was treated as the test sample.
# Gel permeation chromatography was performed on equal volumes of control AGE-BSA preparation and solution of AGE-BSA treated with drug. […]
# [7] = system: Maillard reaction in-vitro (BSA, ribose); assay: Test for AGE inhibiting activity (Maillard reaction in-vitro, BSA + ribose, fluorescence); format: biochemical, bovine; settings: 37° C., 7 days
# Procedure: The following method was used to determine the inhibitory effect of the test compounds on Maillard reaction in-vitro. This method is adopted from U.S. Pat. No. 5,514,676 and European Patent No. 0 339 496 A2.
# A solution of Bovine Serum Albumin (BSA), ribose and test compound was prepared in Phosphate Buffer Saline (PBS, pH 7.4) so as to have final concentration of BSA and ribose at 10 mg/ml and 500 mM respectively. Addition of compound was done in aseptic conditions. Sodium azide (0.02%) was also added in this solution in order to prevent microbial growth. A separate tube containing BSA, ribose and sodium azide in the same concentration and buffer as above, but without any test compound, was also incubated as positive control. After incubation at 37° C. for 7 days, 40 micro liter sample from each tube was removed and diluted with PBS to have final concentration of BSA at 1 mg/ml. The fluorescence of all the samples was measured at Excitation Maximum of […] and the Emission Maximum of […] using f-MAX Fluorimeter (Molecular Device, USA). In order to study the effect of test compound on fluorescence, freshly prepared compound solution was mixed with previously incubated positive control (i.e. BSA+ribose), so as to achieve same concentration of all the components as that of test samples.
# The percent inhibition of test compound was measured as follows:
# [formula] Where F3=Fluorescence of BSA+ribose+compound, F4 is fluorescence of incubated (BSA+ribose)+freshly added test compound.
# [8] = Free radical scavenging activity on ABTS radical cation; format: biochemical
# Procedure: This method measures the relative ability of free radical scavenging substances to scavenge the ABTS.^+ i.e. 2,2-Azino-bis-(3-ethyl benzo thiazoline-6-sulfonate) radical cation as compared to a standard amount of standard or free radical scavengers antioxidants. Incubation of ABTS with Peroxidase (metmyoglobin) and hydrogen peroxide results in the production of radical cation ABTS.^+. This species is blue-green in colour and can be detected at 730 nm. Antioxidants or free radical scavengers in the added sample that causes suppression of the color to a degree that is proportional to their concentration.
# Preparation of Buffer Solutions: • a. Phosphate Citrate Buffer (pH 5.0): 48.5 ml of 0.1M citric acid with sufficient 0.2M disodium hydrogen phosphate to produce 100 ml. • b. Phosphate Buffer Saline (PBS): Dissolve 40.0 g of NaCl, 1.0 g of KCl, 1.0 g of KH2PO4 and 3.05 g of Na2HPO4 in 1 liter milli-Q water. Dilute 200 ml of above solution to 1 liter with milli-Q water (pH 7.4–7.6).
# Preparation of ABTS Stock Solution (2 mM): • 1 tablet (10 mg) was dissolved in phosphate citrate buffer (pH 5.0) to give a 2 mM solution.
# Preparation of Horse Radish Peroxidase Working Solution: • 0.1 mg was dissolved in 10 ml of phosphate buffer saline, 1 ml of this solution was diluted to 100 ml with PBS.
# Preparation of Hydrogen Peroxide (1.08 mM) Solution: • 12 μl of Hydrogen Peroxide (30% w/v) was diluted to 100 ml with PBS.
# Preparation of Drug Solutions: • 0.1 mM of stock solution of the drug was prepared which was serially diluted in PBS to get 0.05 mM, 0.025 mM and 0.0125 mM solutions.
# Preparation of ABTS Radical Stock Solution: • To 2 ml of ABTS stock solution, 1 ml of horseradish Peroxidase working solution was added. • As soon as 2 ml of Hydrogen peroxide solution was added to the above solution, blue-green colour of the ABTS radicals appeared. This solution was incubated at 30° C. for 30 min in order to ensure the completion reaction. Make up the volume to 10 ml with PBS.
# Preparation of Control Solution: • 900 μl of ABTS radical stock solution were added to an eppendorf tube. To it were added 100 μl of PBS solution.
# Preparation of Test Solution: • 900 μl of ABTS radical stock solutions were added to different eppendorf tubes. To it were added 100 μl of various concentrations of drug solution.
# Measurement of Absorbance (O.D): • The absorbance of control and test samples was recorded immediately at 730 nm taking PBS as blank.
# Calculation: • The percent antioxidant activity was calculated according to the formula: % Antioxidant activity=100−[O.D of test sample/O.D of control×100]
# [9] = diabetes induced (Wolffenbuttel 1998); cited from earlier work
# T1 sequence (P02769 25-607): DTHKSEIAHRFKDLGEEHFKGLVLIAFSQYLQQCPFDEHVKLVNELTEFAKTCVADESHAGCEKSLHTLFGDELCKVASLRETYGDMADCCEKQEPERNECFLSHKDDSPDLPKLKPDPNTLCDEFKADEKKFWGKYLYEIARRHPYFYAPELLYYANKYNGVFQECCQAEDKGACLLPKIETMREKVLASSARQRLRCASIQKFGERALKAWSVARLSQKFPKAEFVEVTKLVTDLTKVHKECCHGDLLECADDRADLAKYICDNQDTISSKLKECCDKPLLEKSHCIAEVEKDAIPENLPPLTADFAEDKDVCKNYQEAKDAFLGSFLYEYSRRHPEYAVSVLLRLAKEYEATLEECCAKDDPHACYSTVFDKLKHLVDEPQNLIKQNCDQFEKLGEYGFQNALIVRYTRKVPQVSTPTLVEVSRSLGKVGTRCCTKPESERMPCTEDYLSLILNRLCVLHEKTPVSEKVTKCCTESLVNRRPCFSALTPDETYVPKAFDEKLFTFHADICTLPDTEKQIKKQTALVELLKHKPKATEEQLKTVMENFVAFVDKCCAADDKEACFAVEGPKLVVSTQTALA
Compound,% Breakage [6],Relative Free Radical Scavenging Activity (%) on ABTS ([8]; 12.5 μM),Relative Free Radical Scavenging Activity (%) on ABTS ([8]; 25.0 μM),Relative Free Radical Scavenging Activity (%) on ABTS ([8]; 50.0 μM),Relative Free Radical Scavenging Activity (%) on ABTS ([8]; 100.0 μM),other results
N=C(N)NN [aminoguanidine],,,,,,"nerve conduction velocity [1]: improve nerve conduction velocity; tissue damage [2]: significantly prevent tissue damage; development of diabetic nephropathy ([3]; Yamauchi (1997)): inhibits development of diabetic nephropathy; thickening of glomerular basement membrane ([3]; diabetic rats (Ellis 1991)): ameliorate thickening of glomerular basement membrane; rise in albuminuria ([3]; experimental diabetic rats (Soulis-Liparota, 1991)): attenuate the rise in albuminuria; progression of diabetic retinopathy [4]: retard progression of diabetic retinopathy"
O=C(C[n+]1ccsc1)c1ccccc1.[Br-] [N-phenacyl thiazolium bromide],,,,,,"cleavage of AGE derived protein cross links [5]: cleaves covalent, AGE derived protein cross links"
"Cc1cc(C)n(Cc2cc(-c3ccc[n+](CC(=O)c4ccccc4)c3)[nH]n2)n1.[Cl-] [Compound 17, 1-(2-Phenyl-2-oxoethyl)-3-[(3-(3,5-dimethylpyrazol-1-yl)methyl)pyrazol-5-yl]-pyridinium chloride]",52.27%,28.34%,54.43%,83.56%,94.81%,% Inhibition (Day 7) ([7]; 2.5 mM compound): 57.43%
O=C(C[n+]1cccc(-c2cc(CCC3CCCCC3)n[nH]2)c1)c1ccccc1.[Cl-] [Compound 22],100.00%,22.52%,29.52%,30.31%,31.40%,% Inhibition (Day 7) ([7]; 2.5 mM compound): 51%
"O=C(C[n+]1cccc(-c2cc(COc3ccccc3)nn2-c2ccccc2)c1)c1ccccc1.[Cl-] [Compound 34, 1-(2-Phenyl-2-oxoethyl)-3-[(1-phenyl-3-phenoxymethyl)pyrazol-5-yl]pyridinium chloride]",100.0%,13.2%,19.08%,26.39%,29.40%,% Inhibition (Day 7) ([7]; 5 mM compound): 60%
"1-(2-Thien-2′-yl-2-oxoethyl)-3-[(1-cyclohexyl-3-(3,5-dimethylpyrazol-1-yl)methyl)pyrazol-5-yl]pyridinium chloride [Compound 35]",66.66%,28.27%,39.78%,58.34%,74.36%,% Inhibition (Day 7) ([7]; 10 mM compound): 73.8%
Cc1sc[n+](CC(=O)c2ccccc2)c1C.[Cl-] [ALT-711],,,,,,arterial stiffness and arterial compliance [9]: reverse diabetes induced increase of arterial stiffness and improve arterial compliance

# Source: US7223777B2, “Compounds for the management of aging-related and diabetic vascular complications, process for their preparation, therapeutic and cosmetic uses thereof” (Torrent Pharmaceuticals Ltd., priority 2001, dated 2007)
